Assay results published in ChEMBL document CHEMBL5223098, “Prodrugs of pyrophosphates and bisphosphonates: disguising phosphorus oxyanions” (RSC Med Chem, 2022).
Blank lines part the entries; values can stand above or below the compound they belong to.

Assays:
[1] = Half-life of the compound in 80% human serum by HPLC analysis; format: ADME, cell-free; settings: 80% serum
[2] = Apparent partition coefficient, logPapp of the compound in pH 7.4 phosphate buffer incubated for 30 mins by HPLC analysis; format: physicochemical
[3] = Half-life of the compound in pH 2.0 phosphate buffer by HPLC analysis; format: physicochemical
[4] = Half-life of the compound in pH 7.4 phosphate buffer by HPLC analysis; format: physicochemical
[5] = 1-Octanol/phosphate buffer apparent partition coefficient, logPapp of the compound at pH 7.4 by shake-flask method; format: physicochemical
[6] = Half-life of the compound in 10% rabbit liver homogenate by HPLC analysis; format: ADME, tissue-based, Oryctolagus cuniculus; settings: 10% liver homogenate
[7] = Half-life of the compound in pH 5.0 phosphate buffer by HPLC analysis; format: physicochemical
[8] = Octanol-water partition coefficient, logP of the compound by shake-flask method; format: physicochemical
[9] = Apparent partition coefficient, logPapp of the compound by HPLC analysis; format: physicochemical; settings: octanol/water
[10] = 1-Octanol/phosphate buffer apparent partition coefficient, logPapp of the compound by shake-flask method; format: physicochemical
[11] = Half-life of the compound in human serum by HPLC analysis; format: ADME, cell-free
[12] = Half-life of the compound in pH 7.3 PBS buffer; format: physicochemical
[13] = Half-life of the compound in human CEM/0 cell extract at pH 6.9; format: ADME, CCRF-CEM
[14] = Half life of the compound in RPMI medium; format: physicochemical
[15] = Half life of the compound in pH 7.0 TEAA buffer; format: physicochemical
[16] = test system: Human immunodeficiency virus 2; experiment: Potency index, ratio of d4T EC50 to test compound EC50 for antiviral activity against HIV2 infected in human CEM-TK(-) cells assessed as inhibition of viral replication incubated for 4 to 5 days by microscopic analysis; format: functional; settings: time 4-5 day
[17] = test system: Human immunodeficiency virus 2; experiment: Antiviral activity against HIV2 infected in human CEM-TK(-) cells assessed as inhibition of viral replication incubated for 4 to 5 days by microscopic analysis; format: functional, organism-based; settings: Human immunodeficiency virus 2, CEM-TK(-)
[18] = Time for quantitative release of etidronate in 10% rabbit liver homogenate; settings: 10% liver homogenate

SMILES: CC(C)(C)C(=O)OP(=O)(O)C(Cl)(Cl)P(=O)(O)OC(=O)C(C)(C)C
half-life [1]: 3.3 h
logD at 0.5 h [2]: -2.3

SMILES: CC(=O)OP(=O)(O)C(Cl)(Cl)P(=O)(O)OC(C)=O
half-life [3]: 0.75 h
half-life [4]: 15.2 h
logD at 0.5 h [2]: -2.3

SMILES: O=C(OP(=O)(O)C(Cl)(Cl)P(=O)(O)OC(=O)c1ccccc1)c1ccccc1
logD at 0.5 h [2]: -2.3

SMILES: CCCC(=O)OP(=O)(O)C(Cl)(Cl)P(=O)(O)OC(=O)CCC
half-life [3]: 0.75 h
half-life [4]: 15.2 h
logD at 0.5 h [2]: -2.3

SMILES: CC(C)(C)C(=O)OCOP(=O)(OCOC(=O)C(C)(C)C)C(Cl)(Cl)P(=O)(OCOC(=O)C(C)(C)C)OCOC(=O)C(C)(C)C
logD [5]: 7.4

SMILES: COc1ccc(OP(=O)(O)C(O)(c2cccc(Br)c2)P(=O)(O)Oc2ccc(OC)cc2)cc1 (stereo not drawn)
logP [8]: -0.31

SMILES: CC(=O)OC(C)(P(=O)(O)OCOC(=O)C(C)(C)C)P(=O)(OCOC(=O)C(C)(C)C)OCOC(=O)C(C)(C)C (stereo not drawn)
half-life [4]: 163 h
logD [10]: 0.6
half-life [7]: 252 h
half-life [11]: 4.8 h
half-life [6]: 0.045 h

SMILES: Cc1cn([C@H]2C=C[C@@H](COP(=O)(O)OP(=O)(OCc3ccc(OC(=O)c4ccccc4)cc3)OCc3ccc(OC(=O)c4ccccc4)cc3)O2)c(=O)[nH]c1=O
Ratio EC50 [16]: 82
EC50 [17]: 850 nM

SMILES: Cc1cn([C@H]2C=C[C@@H](CO)O2)c(=O)[nH]c1=O [STAVUDINE]
EC50 [17]: 70000 nM

The next lines start with results.

logD [5]: -2.1
half-life [6]: 0.233 h
SMILES: CC(C)(C)C(=O)OCOP(=O)(O)C(Cl)(Cl)P(=O)(O)OCOC(=O)C(C)(C)C

logD [5]: 1.6
half-life [4]: > 1 h
half-life [7]: > 1 h
half-life [6]: 0.0183 h
SMILES: CC(C)(C)C(=O)OCOP(=O)(O)C(Cl)(Cl)P(=O)(OCOC(=O)C(C)(C)C)OCOC(=O)C(C)(C)C

logD [9]: 7.4
SMILES: CC(=O)OC(C)(P(=O)(OCOC(=O)C(C)(C)C)OCOC(=O)C(C)(C)C)P(=O)(OCOC(=O)C(C)(C)C)OCOC(=O)C(C)(C)C

half-life [12]: 17 h
half-life [13]: 2 min
SMILES: CC(=O)Oc1ccc(COP(=O)(OCc2ccc(OC(C)=O)cc2)OP(=O)(O)OC[C@H]2O[C@@H](n3cc(C)c(=O)[nH]c3=O)C[C@@H]2N=[N+]=[N-])cc1

half-life [14]: 1.7 h
half-life [15]: 114 h
SMILES: CCCCCCCCCCCCCC(=O)OP(=O)(O)OP(=O)(O)OC[C@H]1O[C@@H](n2cc(C)c(=O)[nH]c2=O)C[C@@H]1N=[N+]=[N-]

EC50 [17]: 2600 nM
SMILES: CCCCCCCC(=O)Oc1ccc(COP(=O)(OCc2ccc(OC(=O)CCCCCCC)cc2)OP(=O)(O)OC[C@@H]2C=C[C@H](n3cc(C)c(=O)[nH]c3=O)O2)cc1
Ratio EC50 [16]: 27

time to quantitative release [18]: 3300 min
SMILES: CC(O)(P(=O)(O)O)P(=O)(O)O [ETIDRONIC ACID]
